Literature values in patent publication US11517526B2, “Stabilised hypochlorous solutions and their medical cosmetic uses” (Clinical Health Technologies Ltd, priority 2019, dated 2022).

What was measured:
[1] = natural state, unless stabilised

## OCl [hypochlorous acid (HOCl), hypochlorous acid]
[1]
  half-life: 48 h
microbes
  effectiveness as an antimicrobial relative to hypochlorite (OCl−): 80-100 times
